How the values were obtained:
recombinant human KIF18A = molecular target: T1, recombinant human KIF18A (Homo sapiens, UniProt Q8NI77); experiment: Inhibition on KIF18A enzyme activity (ADP-Glo); format: biochemical; settings: recombinant human KIF18A 100 nM, ATP 60 μM
T1 construct: purchased GenScript
Experimental: Inhibition degrees of the compounds of the present invention on recombinant human KIF18A enzyme activity in vitro were determined by the following method. An ADP-Glo™ Kinase Assay kit (article number V9102) from Promega Company was used in this method. Detailed experimental operation can be referred to the instruction of the kit.
The reaction was carried out in a 384-well microplate. The test compound and the recombinant human KIF18A protein (final concentration of 100 nM, entrusted to GenScript for expression) were added into the wells and incubated at room temperature for 20 minutes, and subsequently, ATP solution (component V915A from the ADP-Glo™ Kinase Assay kit, final concentration of 60 μM) was added to the reaction solution and the obtained system was incubated at room temperature for 20 minutes. Subsequently, 5 μL of ADP-Glo Reagent was added to the reaction system and the obtained system was incubated at room temperature for 50 minutes. Then, 10 μL of Kinase Detection Reagent was added to the reaction system, and the obtained system was incubated at room temperature for 30 minutes. After the incubation was ended, a chemiluminiscence intensity value of each well was determined by a microplate reader in a Luminescence mode.

[1] = Pharmacokinetic testing in mice; format: in vivo; settings: male, mouse, ICR mice, plasma; for half-life / Cmax: 10 mg/kg, oral administration (10 mg/mL); for half-life: read-out: Half-life period T½ (converted); for Cmax: read-out: Plasma concentration Cmax; for AUC(0-inf): oral administration (10 mg/kg), read-out: Area under the curve AUC0-∞
Experimental: ICR mice were taken as test animals, and intragastrically administered with a control compound AMG650 and compounds 1, 18 and 29 of the present invention, and then drug concentrations in plasma at different moments were determined by an LC/MS/MS method, so as to study pharmacokinetic characteristics of the compounds of the present invention in the mice.
Control compound AMG650, and Compounds 1, 18 and 29.
ICR mice, male, 27.3-30.3 g, purchased from Vital River Laboratory Animal Technology Co., Ltd.
A proper amount of to-be-tested compound was weighed, proper amounts of DMA (N,N-dimethylacetamide), CrEL (polyoxyethylene 35 castor oil) and 5% GS (5% glucose injection) were added in sequence, and the obtained system was evenly mixed by ultrasonic vortex to prepare a 1 mg/mL preparation, wherein DMA, CrEL and 5% GS=10:10:80 (v:v:v).
ICR mice in each to-be-tested compound injection group (9 mice in each group) were fasted overnight and then intragastrically administered with the compound (PO, an administration dosage of the compound was 10 mg/kg and an administration volume of the compound was 10 mL/kg), and were fed 4 hours after administration.
0.25 hours, 0.5 hours, 1 hour, 2 hours, 4 hours, 8 hours, 10 hours and 24 hours before and after administration, about […] of blood was collected through an orbit, and a complete blood sample was placed in an EDTA-K2-containing anticoagulation tube. The collected blood sample was placed on ice, and plasma was centrifugally separated (centrifugation conditions: 1500 g, 10 minutes). The collected plasma was stored at −40~−20° C. before analysis.
A content of the to-be-tested compound in the plasma of the mice after intragastric administration was determined by LC-MS/MS.

OVCAR-3 cells = experiment: Inhibition on OVCAR-3 cell proliferation (CellTiter-Glo); format: cell-based; settings: Homo sapiens, OVCAR-3 cells (TP53 R248Q mutation), 72 hours
Experimental: (§1) Influences of the compounds of the present invention on OVCAR-3 cell proliferation were determined by the following method. OVCAR-3 cells (containing TP53 R248Q mutation) were purchased from the Cell Bank of Shanghai Institute of Biochemistry and Cell Biology, Chinese Academy of Sciences, and cultured in an RPMI 1640 culture medium containing 1000 fetal bovine serum, 100 U penicillin and 100 μg/mL streptomycin. A cell viability was determined by a CellTiter-Glo® Luminescent Cell Viability Assay kit (Promega, article number G7573).
(§2) An experimental method was operated according to steps in the instruction of the kit, which was briefly described as follows: a test compound was dissolved in DMSO first to prepare a 10 mM stock solution, then the stock solution was diluted with the above RPMI 1640 culture medium to prepare a test sample, and a final concentration of the compound was in a range of 1000 nM-0.015 nM. Cells in a logarithmic growth phase were inoculated into a 96-well cell culture plate at a density of 1000 cells per well, cultured in a 5% CO2 incubator at 37° C. overnight, and then the test compound was added to continuously culture for 72 hours. After the culture was ended, 50 μL of CellTiter-Glo detection solution was added to each well, the plates were shaken for 5 minutes, and then allowed to stand for 10 minutes, and subsequently, a luminous value of each well of sample was read by a microplate reader in a Luminescence mode. By comparing with a numerical value of a control group (0.3% DMSO), a percentage inhibition rate of the compound at each concentration was calculated, and then nonlinear regression analysis was carried out based on concentration logarithm-inhibition rate of the compound in GraphPad Prism 5 software, so as to obtain an IC50 value of the compound in inhibition on cell proliferation, which are shown in Table 1.

HT-29 cells = experiment: Inhibition on HT-29 cell proliferation (CellTiter-Glo); format: cell-based; settings: Homo sapiens, HT-29 cells (TP53 R273H mutation), 120 hours
Experimental: as §1, with “HT-29” for “OVCAR-3”, “R273H” for “R248Q”, “a McCOY's 5A” for “an RPMI 1640”, “10%” for “1000”
as §2, with “McCOY's 5A” for “RPMI 1640”, “120” for “72”, “µL” for “μL”, “2.” for “1.”

[2] = system: OVCAR-3 human ovarian adenocarcinoma tumor fragment xenograft; experiment: Pharmacodynamic testing in OVCAR-3 tumor fragment xenograft model; format: in vivo, BALB/c nude mice; settings: 16 days after administration; for Tumor volume (x ± S): mean ± standard error, in mm³
Experimental: An anti-tumor effect of Compound 1 of the present invention in a BALB/c nude mouse animal model with subcutaneous OVCAR-3 human ovarian adenocarcinoma tumor fragment xenograft was evaluated.
BALB/c nude mice, female, 6-7 weeks old, purchased from Jiangsu Gempharmatech Biotechnology Co., Ltd.
Mice in a solvent control group were given DMA:CrEL:5% GS=10:10:80 (v:v:v).
AMG650: a proper amount of AMG-650 was weighed, proper amounts of DMA, CrEL and 5% GS were added in sequence, and the obtained system was evenly mixed by ultrasonic vortex to prepare 0.8 mg/mL and 0.4 mg/mL preparations respectively, wherein DMA, CrEL and 5% GS=10:10:80 (v:v:v).
Compound 1: a proper amount of Compound 1 was weighed, proper amounts of DMA, CrEL and 5% GS were added in sequence, and the obtained system was evenly mixed by ultrasonic vortex to prepare 0.8 mg/mL and 0.4 mg/mL preparations respectively, wherein DMA, CrEL and 5% GS=10:10:80 (v:v:v).
An appropriate OVCAR-3 tumor-bearing animal was selected, a 1 mm×1 mm×1 mm OVCAR-3 tumor fragment was acquired aseptically and placed into normal saline for later use, which was used for subcutaneous tumor inoculation in a right side of back of the BALB/c nude mice.
About 1 mm×1 mm×1 mm OVCAR-3 tumor fragment was subcutaneously inoculated in the right side of back of the female BALB/c nude mice. When an average tumor volume reached about 100-250 mm^3, the mice were randomly grouped according to the tumor size, with 6 mice in each group.
Animals in each group were given the test compound once per day according to an animal weight at a fixed time every day by oral administration (po), the animals started to be administered with the test compound for the first time on the day of grouping for 22 consecutive days, and the animal weight was recorded every day. • The 1st group (G1) was a solvent control group; • The 2nd group (G2) and the 3rd group (G3) were orally administered with AMG-650 at administration dosages of 8 mg/kg and 4 mg/kg respectively once per day (QD); and • The 4th group (G4) and the 5th group (G5) were orally administered with Compound 1 at administration dosages of 8 mg/kg and 4 mg/kg respectively once per day (QD).
Tumor formation at an inoculation site of the animals in each group was observed, and a tumor volume was measured twice per week, and calculated according to the following formula: • a tumor volume (TV), a relative tumor volume (RTV), a relative tumor proliferation rate (T/C) and a relative tumor inhibition rate (TGI) were calculated according to the following formulas:
TV (tumor volume)=½×a×b^2, wherein a and b respectively represented a tumor length and a tumor width; (1)
RTV (relative tumor volume)=Vt/V0, wherein V0 was a tumor volume measured at the time of grouping, and Vt was a tumor volume in each measurement; (2)
T/C (%)=TRTV/CRTV×100%, wherein TRTV was RTV of a treatment group, and CRTV was RTV of a solvent control group; and (3)
TGI %=(1−T/C)×100%, wherein T and C were relative tumor volumes of the treatment group and the solvent control group at a specific time point respectively. (4)

T1 sequence (Q8NI77 whole entry): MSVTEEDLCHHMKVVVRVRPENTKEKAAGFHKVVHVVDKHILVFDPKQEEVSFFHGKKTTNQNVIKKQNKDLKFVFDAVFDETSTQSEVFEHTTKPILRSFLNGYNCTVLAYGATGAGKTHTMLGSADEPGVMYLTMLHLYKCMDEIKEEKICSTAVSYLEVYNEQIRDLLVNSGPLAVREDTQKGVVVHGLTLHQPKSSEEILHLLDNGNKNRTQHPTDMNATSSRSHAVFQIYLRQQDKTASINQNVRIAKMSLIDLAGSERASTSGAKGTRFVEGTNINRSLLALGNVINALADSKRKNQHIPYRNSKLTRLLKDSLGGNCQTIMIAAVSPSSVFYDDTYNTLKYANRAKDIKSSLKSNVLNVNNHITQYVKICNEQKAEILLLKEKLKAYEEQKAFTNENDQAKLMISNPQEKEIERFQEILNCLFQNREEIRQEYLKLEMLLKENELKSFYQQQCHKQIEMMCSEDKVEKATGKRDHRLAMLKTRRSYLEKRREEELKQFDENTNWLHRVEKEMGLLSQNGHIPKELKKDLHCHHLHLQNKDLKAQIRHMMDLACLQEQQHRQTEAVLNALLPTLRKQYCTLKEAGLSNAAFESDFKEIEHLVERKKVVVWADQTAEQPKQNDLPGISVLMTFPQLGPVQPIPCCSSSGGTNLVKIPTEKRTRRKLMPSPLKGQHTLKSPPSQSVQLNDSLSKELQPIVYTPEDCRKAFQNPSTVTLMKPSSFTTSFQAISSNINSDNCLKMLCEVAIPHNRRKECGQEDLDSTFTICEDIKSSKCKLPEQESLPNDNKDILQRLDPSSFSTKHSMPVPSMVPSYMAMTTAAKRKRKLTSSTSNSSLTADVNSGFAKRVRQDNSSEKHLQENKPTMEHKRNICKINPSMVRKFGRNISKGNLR
T1 sequence (P68363 whole entry partner): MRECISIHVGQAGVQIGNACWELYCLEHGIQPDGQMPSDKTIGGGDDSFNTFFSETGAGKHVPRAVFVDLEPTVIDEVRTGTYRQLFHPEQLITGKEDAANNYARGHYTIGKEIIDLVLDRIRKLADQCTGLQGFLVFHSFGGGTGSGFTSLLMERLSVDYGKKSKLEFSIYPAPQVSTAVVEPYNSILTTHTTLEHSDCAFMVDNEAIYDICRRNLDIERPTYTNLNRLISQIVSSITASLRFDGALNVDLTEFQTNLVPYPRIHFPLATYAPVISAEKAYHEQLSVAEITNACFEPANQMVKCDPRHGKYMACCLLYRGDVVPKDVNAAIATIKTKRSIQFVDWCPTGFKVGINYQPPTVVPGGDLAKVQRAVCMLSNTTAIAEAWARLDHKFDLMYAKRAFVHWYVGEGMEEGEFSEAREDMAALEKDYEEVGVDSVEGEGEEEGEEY
T1 sequence (Q9BVA1 whole entry partner): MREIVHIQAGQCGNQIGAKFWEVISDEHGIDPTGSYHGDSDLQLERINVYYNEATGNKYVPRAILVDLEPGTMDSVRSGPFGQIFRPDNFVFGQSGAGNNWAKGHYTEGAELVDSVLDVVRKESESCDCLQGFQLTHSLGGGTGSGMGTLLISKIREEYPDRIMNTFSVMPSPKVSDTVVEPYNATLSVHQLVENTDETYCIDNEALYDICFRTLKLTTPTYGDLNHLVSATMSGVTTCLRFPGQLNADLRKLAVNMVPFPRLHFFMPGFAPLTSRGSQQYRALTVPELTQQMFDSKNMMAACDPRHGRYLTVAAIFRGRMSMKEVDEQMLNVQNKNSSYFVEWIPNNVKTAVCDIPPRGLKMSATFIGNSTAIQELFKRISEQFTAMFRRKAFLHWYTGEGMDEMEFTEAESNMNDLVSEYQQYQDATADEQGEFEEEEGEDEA

| SMILES | IC50 (recombinant human KIF18A) | half-life [1] | Cmax [1] | AUC(0-inf) [1] | IC50 (OVCAR-3 cells) | IC50 (HT-29 cells) | TGI ([2]; 4 mg/kg po QD) | Tumor volume (x ± S) ([2]; 4 mg/kg po QD) | TGI ([2]; 8 mg/kg po QD) | Tumor volume (x ± S) ([2]; 8 mg/kg po QD) |
| --- | --- | --- | --- | --- | --- | --- | --- | --- | --- | --- |
| O=C(Nc1cc2c(c(N3CCC(F)(F)CC3)c1)OCC2)c1ccc(NS(=O)(=O)CCO)cc1N1CCC2(CC1)CC2 [Example 29, N-(7-(4,4-difluoropiperidin-1-yl)-2,3-dihydrobenzofuran-5-yl)-4-((2-hydroxyethyl)sulfamine)-2-(6-azaspiro[2.5]octan-6-yl)benzamide] | 316 nM | 1.24 h | 6960 ng/mL | 25900 ng·h/mL |  |  |  |  |  |  |
| CCS(=O)(=O)Nc1ccc(C(=O)Nc2cc(N3CCC(F)(F)CC3)c3nn(C)cc3c2)c(N2CCC3(CC2)CC3)c1 [Example 18, N-(7-(4,4-difluoropiperidin-1-yl)-2-methyl-2H-indazol-5-yl)-4-(ethylsulfonamido)-2-(6-azaspiro[2.5]octan-6-yl)benzamide] |  | 5.2 h | 3030 ng/mL | 45900 ng·h/mL | 3.3 nM | 7.7 nM |  |  |  |  |
| Cc1cc(NC(=O)c2ccc(NS(=O)(=O)CCO)cc2N2CCC3(CC2)CC3)nc(N2CCC(F)(F)CC2)n1 [AMG 650, reference compound] |  |  |  |  |  |  | 15.3% | 511 ± 49 | 60.5% | 243 ± 35 |

From patent US20260256763A1, “Aromatic Amide Derivative, And Preparation Method Therefor And Use Thereof” (Zhejiang Hisun Pharmaceutical Co., Ltd., priority 2023, published 2026)
